Measured values published in article PMC5216877, “Exploring conformational equilibria of a heterodimeric ABC transporter” (eLife, 2017).
Where two headings read alike, the source gives them in different places. Marks after values point to notes of the source that are not given here.

Legend:
TM287/288 [1] = molecular target: T1, TM287/288 (Thermotoga maritima, UniProt Q9WYC3+Q9WYC4, C28S/C496S/C519S/C558S/C73S); test: ATPase activity of detergent-purified wildtype TM287/288 (molybdate/malachite green phosphate detection); assay type: biochemical; conditions: for Km: read-out: Km for ATP
TM287/288_E517Q^TM288 = test: Residual ATPase activity of E-to-Q mutant of TM287/288 in detergent; assay type: biochemical, Thermotoga maritima; conditions: E-to-Q mutant of TM287/288, 25°C
Protocol: (§1) Incubation with buffers containing the same nucleotide concentration without protein served for background subtraction in these assays.

BmrCD [2] = molecular target: T2, BmrCD (Bacillus subtilis, UniProt O07549+O07550, C154A/C256A/C351A); test: ATPase activity of detergent-purified wildtype BmrCD; assay type: biochemical; conditions: 25°C
T2 construct: made in house; host or cells: E. coli MC1061

BmrCD_E592Q^BmrD = molecular target: T3, BmrCD_E592Q^BmrD (Bacillus subtilis, UniProt O07549+O07550, C154A/C256A/C351A/E592Q); test: Residual ATPase activity of E-to-Q mutant of BmrCD in detergent; assay type: biochemical; conditions: 25°C
T3 construct: made in house; host or cells: E. coli MC1061
Protocol: as §1

TM287/288 [3] = test: DEER two-Gaussian fit of IF/OF populations, wildtype TM287/288; set-up: species or system Thermotoga maritima; conditions: estimated errors 10%
Protocol: (§2) All nucleotides and nucleotide analogs used in this study were added at saturating conditions well above their Ki values (Table 2). […] Therefore, the IF/OF fractions detected in the sample reflect the average life time that the nucleotide-bound transporter spends in either conformation. To rank the nucleotides in terms of their ability to support the transition to the OF conformation, we used three representative pairs in the wildtype transporter and the E-to-Q mutant: one in the extracellular region (50^TM287/271^TM287), one in the intracellular region (131^TM288/248^TM288) of the TMDs, and one in the NBDs (460^TM287/363^TM288) for which the distance peaks corresponding to the two states were distinguishable. A two-Gaussian fit of the DEER traces was performed to obtain the area of the corresponding IF and OF distance peaks (Figure 5—source data 1). The rank of nucleotides with respect to increasing fractions of the OF populations (Figure 5A) was: ADP-Mg ≈ AMP-PNP-Mg < ATP-EDTA < ATPγS-Mg < ATP-Mg < ATP-Vi-Mg. The order is similar for the wildtype and E-to-Q mutant transporter. However, the OF state is in general more populated in the E-to-Q mutant, which is best explained by an alteration of the energy profile caused by the mutation. This notion is best appreciated for ATP-EDTA and ATP-Mg, which could trigger an almost complete switch in the molecular ensemble of the E-to-Q mutant (Figure 5B).
(§3) The labeling efficiency of the double cysteine mutants of the transporters solubilized in detergent was measured at 25°C using an X-band Miniscope 400 EPR spectrometer (Magnettech by Freiberg Instrument). Samples were loaded into glass capillaries with the inner diameter of 0.9 mm and spectra were measured with 14 mT field sweep, 0.15 mT modulation amplitude, 2.5 mW microwave power. The calculated spin labeling efficiencies of the twelve mutants ranged between 70–90% (the second integral of the EPR spectra was calculated with the software available at spintoolbox.com). The high degree of labeling is correlated with the 0.3–0.4 modulation depths of all Q-band DEER traces presented. For DEER measurements, 10% v/v D8- glycerol was added prior to snap freezing. The range of final protein concentrations was 12 to 41 µM. 40 µL of sample were loaded in quartz tubes with 3 mm outer diameter. If not stated differently, samples were incubated at 25°C for 10 min (TM287/288 and MsbA) or 15 min (BmrCD) and snap frozen in liquid nitrogen. To study the effect of high physiological temperatures on the frozen dynamics of the transporter, samples were loaded in the quartz tubes, incubated for 3 min at 80°C on a heat block and snap frozen in a mixture of isopentane and liquid nitrogen to minimize the freezing time. […] The nucleotide analogs AMP-PNP-Mg and ATPγS-Mg (2.5 mM) were also prepared in the presence of 2.5 mM MgCl2. In case of ADP-Mg, 2.5 mM ADP and 2.5 mM MgCl2 were added.
(§4) Double electron-electron resonance (DEER) measurements were performed at 50 K on a Bruker ELEXSYS E580Q-AWG (arbitrary wave generator) dedicated pulse Q-band spectrometer equipped with a 150 W TWT amplifier. A 4-pulse DEER sequence with rectangular, non-selective observer and pump pulses of 14 or 16 ns length (depending on the available B1 at the sample) with 100 MHz frequency separation was used ([Polyhach et al., 2012]). Due to the coherent nature of the AWG generated pulses, a four-step phase cycling (0 – π/2 - π – 3/2π) of the pump π pulse was performed to remove unwanted effects of running echoes from the DEER trace. The evaluation of the DEER data was performed using DeerAnalysis2015 ([Jeschke et al., 2006]). The background of the primary DEER traces was corrected using stretched exponential functions with homogeneous dimensions of 1.5 to 3 for different samples. A model-free Tikhonov regularization was used to extract distance distributions from the background corrected form factors. […]

TM287/288 E517Q = test: DEER two-Gaussian fit of IF/OF populations, E-to-Q mutant of TM287/288; set-up: species or system Thermotoga maritima; conditions: estimated errors 10%
Protocol: as §2, §3, §4

MsbA [4] = test: ATPase activity of detergent-purified MsbA; conditions: ATP-Mg, 30°C
Spin-labeled TM287/288 = test: ATPase activity of spin-labeled TM287/288 mutants in detergent; conditions: 50°C, relative to internal wildtype control
TM287/288 [5] = molecular target: T1, TM287/288; test: Inhibition of ATPase activity of TM287/288 by vanadate and nucleotides; assay type: biochemical; conditions: for IC50: 500 µM ATP, read-out: IC50; for Ki: calculated from IC50 and Km, read-out: Ki
Protocol: Nucleotide binding and hydrolysis follow a complex mechanism in heterodimeric ABC exporters, due to the existence of a degenerate and a consensus site in the NBDs. […] Using the relation IC50=Ki(1+[S]/Km), Ki values for the respective nucleotides were determined (Table 2). […] It is well established that ATPγS is slowly hydrolyzed by ATPases, as for example the F1Fo-ATPase ([Turina and Capaldi, 1994]). […] It is reasonable to assume that TM287/288 is as well capable of slow ATPγS hydrolysis. In addition, we tested whether TM287/288 hydrolyzes AMP-PNP. In contrast to ATPγS, hydrolysis of AMP-PNP releases Pi, which can be detected by the molybdate/malachite green method.
(§5) in which f corresponds to the ATPase activity at the respective inhibitor concentration divided by the ATPase activity in the absence of inhibitor normalized to 100%, y0 corresponds to the residual activity at infinite inhibitor concentration, a corresponds to the maximal degree of inhibition (a+y0=100%) and x corresponds to the inhibitor concentration.
(§6) Ki values were calculated according to the formula Ki=IC50/(1+[S]/Km)
(§7) IC50 and Km values were obtained from data fitting as outlined above.
(§8) Standard errors for the Ki values were calculated by error propagation: σKi = (Km/Km+[S])^2 σIC502+ ([S]IC50/(Km+[S])^2)^2 σKm2
(§9) in which the σIC50 and σKm are standard errors obtained from data fitting in SigmaPlot and σKi is the standard error for Ki .

BmrCD [6] = molecular target: T2, BmrCD; test: Inhibition of ATPase activity of BmrCD by nucleotide analogs; assay type: biochemical; conditions: BmrCD, 25°C
Protocol: as §5, §6, §7, §8, §9

MsbA [7] = tested on: MsbA; set-up: method as in Moeller et al., 2015; conditions: single particle EM; ref Moeller et al., 2015; cited from earlier work
[8] = wildtype TM287/288, ATP-Mg, 25°C, detergent
[9] = wildtype TM287/288, ATP-Mg, 50°C, detergent
[10] = wildtype BmrCD, ATP-Mg, detergent
[11] = BmrCD E592Q^BmrD, ATP-Mg, detergent
[12] = spin-labeled pair 50^TM287-271^TM287 WT
[13] = spin-labeled pair 131^TM288-248^TM288 WT
[14] = spin-labeled pair 460^TM287-363^TM288 WT
[15] = spin-labeled pair 50^TM287-271^TM287 E517Q
[16] = spin-labeled pair 131^TM288-248^TM288 E517Q
[17] = spin-labeled pair 460^TM287-363^TM288 E517Q
[18] = wildtype TM287/288, AMP-PNP-Mg as nucleotide, 25°C [sic], detergent

T2 sequence (O07550 whole entry): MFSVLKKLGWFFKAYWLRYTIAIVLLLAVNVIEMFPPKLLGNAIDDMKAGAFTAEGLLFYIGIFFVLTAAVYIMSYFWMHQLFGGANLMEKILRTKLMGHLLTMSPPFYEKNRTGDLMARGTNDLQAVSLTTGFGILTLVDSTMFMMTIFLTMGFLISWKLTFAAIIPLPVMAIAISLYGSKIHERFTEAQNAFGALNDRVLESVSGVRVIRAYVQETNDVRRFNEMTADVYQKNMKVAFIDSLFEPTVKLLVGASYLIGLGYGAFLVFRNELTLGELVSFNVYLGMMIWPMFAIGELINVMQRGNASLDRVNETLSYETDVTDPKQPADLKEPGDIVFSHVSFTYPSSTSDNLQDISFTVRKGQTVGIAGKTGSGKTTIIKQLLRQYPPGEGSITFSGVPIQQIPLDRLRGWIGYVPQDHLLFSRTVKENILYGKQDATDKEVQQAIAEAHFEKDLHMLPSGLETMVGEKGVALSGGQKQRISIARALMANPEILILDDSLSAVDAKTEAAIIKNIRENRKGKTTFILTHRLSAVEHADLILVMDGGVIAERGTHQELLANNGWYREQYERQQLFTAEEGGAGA
T2 sequence (O07549 whole entry C154A/C256A/C351A): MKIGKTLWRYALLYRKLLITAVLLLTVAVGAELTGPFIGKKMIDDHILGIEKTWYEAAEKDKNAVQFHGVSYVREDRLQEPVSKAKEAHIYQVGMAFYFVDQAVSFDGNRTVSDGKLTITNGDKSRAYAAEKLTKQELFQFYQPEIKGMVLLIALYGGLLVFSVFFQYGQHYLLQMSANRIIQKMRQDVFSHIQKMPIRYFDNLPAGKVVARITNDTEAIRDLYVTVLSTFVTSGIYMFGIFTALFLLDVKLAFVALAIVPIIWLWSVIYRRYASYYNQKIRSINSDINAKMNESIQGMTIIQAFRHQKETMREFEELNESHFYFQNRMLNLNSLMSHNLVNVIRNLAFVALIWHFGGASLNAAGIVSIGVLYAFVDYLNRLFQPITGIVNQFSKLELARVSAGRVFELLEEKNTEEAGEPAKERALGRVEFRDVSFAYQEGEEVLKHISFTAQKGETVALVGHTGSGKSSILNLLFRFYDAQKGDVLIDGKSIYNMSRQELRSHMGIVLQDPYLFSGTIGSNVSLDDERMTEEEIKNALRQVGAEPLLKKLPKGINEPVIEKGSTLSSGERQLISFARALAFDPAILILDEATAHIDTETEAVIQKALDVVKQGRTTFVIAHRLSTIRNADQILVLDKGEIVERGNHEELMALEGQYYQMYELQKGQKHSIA
T3 sequence (O07550 whole entry): as the sequence (O07550 whole entry) above
T3 sequence (O07549 whole entry C154A/C256A/C351A/E592Q): as the sequence (O07549 whole entry C154A/C256A/C351A) above, with E592Q counted along it

With `Nc1ncnc2c1ncn2[C@@H]1O[C@H](COP(=O)(O)OP(=O)(O)OP(=O)(O)O)[C@@H](O)[C@H]1O` [ATP] the Km (TM287/288 [1]; TM287/288, 25°C) was 3.27 ± 0.42 µM, the Km (TM287/288 [1]; TM287/288, 50°C) was 7.78 ± 1.1 µM and the turnover rate (TM287/288 [1]; wildtype TM287/288, ATP-Mg, 25°C) was 11 ATP min^−1. It also gave an ATPase activity (TM287/288 [1]; [8]) of 86.1 ± 2.5 nmol Pi/min/mg protein, a Turnover per transporter (TM287/288 [1]; [8]) of 11.4 min⁻¹ and an ATPase activity (TM287/288 [1]; [9]) of 2141 ± 67 nmol Pi/min/mg protein. It also gave a Turnover per transporter (TM287/288 [1]; [9]) of 284 min⁻¹, an ATPase turnover rate (TM287/288_E517Q^TM288) of 0.022 ATP min^−1 and a Km (BmrCD [2]; read-out: Km for ATP, BmrCD) of 343 ± 24 µM. The ATPase activity (BmrCD [2]; [10]) was 22.9 ± 0.5 nmol Pi/min/mg protein, the Turnover per transporter (BmrCD [2]; [10]) was 3.24 min⁻¹ and the ATPase activity (BmrCD_E592Q^BmrD; [11]) was 0.633 ± 0.053 nmol Pi/min/mg protein. For the same compound, the “ATPase activity, % of wildtype” value (BmrCD_E592Q^BmrD; [11]) was 2.76%, the Turnover per transporter (BmrCD_E592Q^BmrD; [11]) was 0.0896 min⁻¹ and the turnover rate (BmrCD_E592Q^BmrD; BmrCD carrying the E-to-Q mutation) was 0.09 ATP min^−1. The IF frac (TM287/288 [3]; [12]) was 36.7%, the OF frac (TM287/288 [3]; [12]) was 63.3% and the IF frac (TM287/288 [3]; [13]) was 56.8%. The OF frac (TM287/288 [3]; [13]) was 43.2%, the IF frac (TM287/288 [3]; [14]) was 25.7% and the OF frac (TM287/288 [3]; [14]) was 74.3%. The IF frac (TM287/288 E517Q; [15]) was 5.79%, the OF frac (TM287/288 E517Q; [15]) was 94.21% and the IF frac (TM287/288 E517Q; [16]) was 24.9%. It also gave an OF frac (TM287/288 E517Q; [16]) of 75.1%, an IF frac (TM287/288 E517Q; [17]) of 13% and an OF frac (TM287/288 E517Q; [17]) of 87%. For the same compound, the “ATPase activity, % of wildtype” value (MsbA [4]; MsbA 561^MsbA) was 90.4%, the Turnover per transporter (MsbA [4]; MsbA 561^MsbA) was 16.6 min⁻¹ and the ATPase activity (MsbA [4]; wildtype MsbA) was 135 ± 9 nmol Pi/min/mg protein. For the same compound, the Turnover per transporter (MsbA [4]; wildtype MsbA) was 18.4 min⁻¹, the “ATPase activity, % of wildtype” value (Spin-labeled TM287/288; spin-labeled 131^TM288/248^TM288, ATP-Mg) was 156* % and the “ATPase activity, % of wildtype” value (Spin-labeled TM287/288; spin-labeled 150^TM287/295^TM288, ATP-Mg) was 112* %. The “ATPase activity, % of wildtype” value (Spin-labeled TM287/288; spin-labeled 231^TM287/304^TM287, ATP-Mg) was 146* %, the “ATPase activity, % of wildtype” value (Spin-labeled TM287/288; spin-labeled 350^TM287/475^TM288, ATP-Mg) was 193* % and the “ATPase activity, % of wildtype” value (Spin-labeled TM287/288; spin-labeled 460^TM287/363^TM288, ATP-Mg) was 212* %.

In the case of `Nc1ncnc2c1ncn2[C@@H]1O[C@H](COP(=O)(O)OP(=O)(O)NP(=O)(O)O)[C@@H](O)[C@H]1O` [AMP-PNP], the “cleavage of AMP-PNP (sensitivity of assay)” value (TM287/288 [1]; wildtype TM287/288, AMP-PNP as nucleotide) is reported as under 0.01 Pi min^−1, the “ATPase activity (hydrolysis of AMP-PNP)” value (TM287/288 [1]; [18]) is reported as under 0.1 nmol Pi/min/mg protein and the “ATPase activity, % of wildtype (hydrolysis of AMP-PNP)” value (TM287/288 [1]; [18]) is reported as under 0.005%. The “Turnover per transporter (hydrolysis of AMP-PNP)” value (TM287/288 [1]; [18]) was under 0.01 min⁻¹, the IC50 (TM287/288 [5]; TM287/288, 25°C) was 179 ± 75 µM and the Ki (TM287/288 [5]; TM287/288, 25°C) was 1170 ± 510 nM. For the same compound, the IC50 (TM287/288 [5]; TM287/288, 50°C) was 16.1 ± 1.6 µM, the Ki (TM287/288 [5]; TM287/288, 50°C) was 246 ± 42 nM and the IC50 (BmrCD [6]; 2500 µM ATP, read-out: IC50) was 174 ± 24 µM. For the same compound, the Ki (BmrCD [6]; calculated from IC50 and Km, read-out: Ki) was 21 ± 3.2 µM, the IF frac (TM287/288 [3]; [12]) was 85.4% and the OF frac (TM287/288 [3]; [12]) was 14.6%. For the same compound, the IF frac (TM287/288 [3]; [13]) was 100%, the OF frac (TM287/288 [3]; [13]) was 0% and the IF frac (TM287/288 [3]; [14]) was 90.7%. It also gave an OF frac (TM287/288 [3]; [14]) of 9.3%, an IF frac (TM287/288 E517Q; [15]) of 64.9% and an OF frac (TM287/288 E517Q; [15]) of 35.1%. The IF frac (TM287/288 E517Q; [16]) was 100%, the OF frac (TM287/288 E517Q; [16]) was 0% and the IF frac (TM287/288 E517Q; [17]) was 65.8%. The OF frac (TM287/288 E517Q; [17]) was 34.2% and the “fraction of outward-facing MsbA” value (MsbA [7]) was 41%.
